Data as given in patent US20240209027A1, “PEPTIDE AND PEPTIDE-CONTAINING COMPOSITION” (PeptiAID Inc.,, priority 2021, published 2024).
Read-outs that look alike come from different tables or passages of the source. Starred links: 1 amine or outer side, 2 acyl side, 3 side chain; linkers in the order of their positions; H or OH if unused. Positions of bridges follow the written chain, without caps; N, C: chain ends. Non-standard residues stand in square brackets, D forms with d. Residues, ends and D or L forms follow the SMILES beside them. Chains are numbered I, II in the order given. *: point of attachment. Ala(piperidin-4-yl) = O=C([C@H](CC1CCN([*:3])CC1)N[*:1])[*:2]; Ala(indan-2-yl) = N[C@@H](CC1Cc2ccccc2C1)C(=O)O; Phe(4-COOH) = N[C@@H](Cc1ccc(C(=O)O)cc1)C(=O)O; X3 = O=C(O)CN1CCC(N[*:1])(C(=O)[*:2])CC1; Phe(4-F) = N[C@@H](Cc1ccc(F)cc1)C(=O)O; C12 diacid = O=C(O)CCCCCCCCCCC(=O)*; X1 = C[C@@H](Cc1ccc(O)cc1)C(=O)*; NMeE = CN[C@@H](CCC(=O)O)C(=O)O; Cha = N[C@@H](CC1CCCCC1)C(=O)O; Cit = NC(=O)NCCC[C@H](N)C(=O)O; dNMeD = CN[C@H](CC(=O)O)C(=O)O; NMeNle = CCCC[C@H](NC)C(=O)O; hCys = N[C@@H](CCS)C(=O)O; X2 = O=C(C[*:1])[*:2]; Aib = CC(C)(N)C(=O)O

Key:
Type in all cases: cell-based
[1] = biological target: SARS-CoV-2-derived S protein, Alpha strain (Severe acute respiratory syndrome coronavirus 2, UniProt P0DTC2, DEL69-70/DEL144-144/N501Y/A570D/D614G/P681H/T716I/S982A/D1118H, form not given)
[2] = biological target: SARS-CoV-2-derived S protein, Gamma strain (Severe acute respiratory syndrome coronavirus 2, UniProt P0DTC2, L18F/T20N/P26S/D138Y/R190S/K417T/E484K/N501Y/D614G/H655Y/T1027I/V1176F, form not given)
[3] = biological target: SARS-CoV-2-derived S protein, Beta strain (Severe acute respiratory syndrome coronavirus 2, UniProt P0DTC2, D80A/D215G/DEL241-243/K417N/E484K/N501Y/D614G/A701V, form not given)
[4] = tested on: SARS-CoV-2-derived S protein, Delta strain

SMILES: C[C@H]1C(=O)N(C)[C@@H](Cc2ccccc2)C(=O)N[C@@H](CO)C(=O)N[C@@H](CC2CCCCC2)C(=O)N[C@@H](Cc2ccc(O)cc2)C(=O)N[C@@H](CO)C(=O)N[C@@H](Cc2ccc(O)cc2)C(=O)N[C@@H](Cc2ccc(O)cc2)C(=O)N[C@@H](CCCNC(=N)N)C(=O)N[C@@H](CCCNC(=N)N)C(=O)N[C@@H](CC2CCCCC2)C(=O)N[C@H](C(=O)N[C@H](CCC(=O)O)C(N)=O)CSCC(=O)N1C [Peptide 5555_p000, MeA-MeF-S-Cha-Y-S-Y-Y-R-R-Cha-C]
- Imax: % (at 500 nM) [1]: 100%
- Imax: % (at 500 nM) [2]: 100%
- Imax: % (at 500 nM) [3]: 100%

SMILES: CCCC[C@H]1C(=O)NC(C)(C)C(=O)N[C@@H](CC2CCCCC2)C(=O)N[C@@H](Cc2ccc(F)cc2)C(=O)NC(C)(C)C(=O)N[C@@H](Cc2ccc(O)cc2)C(=O)N[C@@H](Cc2ccc(O)cc2)C(=O)N[C@@H](Cc2ccc(C(=O)O)cc2)C(=O)N[C@@H](CC2CCNCC2)C(=O)N[C@@H](CC2CCCCC2)C(=O)N[C@H](C(=O)N[C@H](CCC(=O)O)C(N)=O)CSCC(=O)N(C)[C@@H](CCC(=O)O)C(=O)N1C [Peptide 5555_p020] ({CH2CO}-[NMeE][NMeNle][Aib][Cha][Phe(4-F)][Aib]YY[Phe(4-COOH)][Ala(piperidin-4-yl)][Cha]C[dE]-NH2; thioether N-12)
- Imax: % (at 500 nM) [1]: 100%
- Imax: % (at 500 nM) [2]: 100%
- Imax: % (at 500 nM) [3]: 100%

SMILES: CCCC[C@H]1C(=O)NC(C)(C)C(=O)N[C@@H](CC2CCCCC2)C(=O)N[C@@H](Cc2ccc(F)cc2)C(=O)NC2(CCN(CC(=O)O)CC2)C(=O)N[C@@H](Cc2ccc(O)cc2)C(=O)N[C@@H](Cc2ccc(O)cc2)C(=O)N[C@@H](Cc2ccc(C(=O)O)cc2)C(=O)N[C@@H](CC2CCNCC2)C(=O)N[C@@H](CC2CCCCC2)C(=O)N[C@H](C(=O)N[C@H](CCC(=O)O)C(N)=O)CSCC(=O)N(C)[C@@H](CCC(=O)O)C(=O)N1C [Peptide 5555_p173] ({CH2CO}-[NMeE][NMeNle][Aib][Cha][Phe(4-F)][X3]YY[Phe(4-COOH)][Ala(piperidin-4-yl)][Cha]C[dE]-NH2; thioether N-12)
- IC50 ([4]; Table 12): 0.6 nM
- Imax: % (at 500 nM) ([4]; Table 12): 100%

SMILES: CCCC[C@H]1C(=O)NC(C)(C)C(=O)N[C@@H](CC2Cc3ccccc3C2)C(=O)N[C@@H](Cc2ccc(F)cc2)C(=O)N2CCC[C@H]2C(=O)N[C@@H](Cc2ccc(O)cc2)C(=O)N[C@@H](Cc2ccc(O)cc2)C(=O)N[C@@H](Cc2ccc(C(=O)O)cc2)C(=O)N[C@@H](CC2CCNCC2)C(=O)N[C@@H](CC2CCCCC2)C(=O)N[C@H](C(=O)N[C@H](CCC(=O)O)C(N)=O)CSCC(=O)N(C)[C@@H](CCC(=O)O)C(=O)N1C [Peptide 5555_p201] ({CH2CO}-[NMeE][NMeNle][Aib][Ala(indan-2-yl)][Phe(4-F)]PYY[Phe(4-COOH)][Ala(piperidin-4-yl)][Cha]C[dE]-NH2; thioether N-12)
- IC50 ([4]; Table 12): 0.7 nM
- Imax: % (at 500 nM) ([4]; Table 12): 101%

SMILES: CCCC[C@H]1C(=O)NC(C)(C)C(=O)N[C@@H](CC2CCCCC2)C(=O)N[C@@H](Cc2ccc(F)cc2)C(=O)N(C)[C@H](CC(=O)O)C(=O)N[C@@H](Cc2ccc(O)cc2)C(=O)N[C@@H](Cc2ccc(O)cc2)C(=O)N[C@@H](Cc2ccc(C(=O)O)cc2)C(=O)N[C@@H](CC2CCNCC2)C(=O)N[C@@H](CC2CCCCC2)C(=O)N[C@H](C(=O)N[C@H](CCC(=O)O)C(N)=O)CSCC(=O)N(C)[C@@H](CCC(=O)O)C(=O)N1C [Peptide 5555_p176] ({CH2CO}-[NMeE][NMeNle][Aib][Cha][Phe(4-F)][dNMeD]YY[Phe(4-COOH)][Ala(piperidin-4-yl)][Cha]C[dE]-NH2; thioether N-12)
- IC50 ([4]; Table 12): 0.6 nM
- Imax: % (at 500 nM) ([4]; Table 12): 100%

SMILES: CCCC[C@H]1C(=O)NC(C)(C)C(=O)N[C@@H](CC2Cc3ccccc3C2)C(=O)N[C@@H](Cc2ccc(F)cc2)C(=O)NC2(CCN(CC(=O)O)CC2)C(=O)N[C@@H](Cc2ccc(O)cc2)C(=O)N[C@@H](Cc2ccc(O)cc2)C(=O)N[C@@H](Cc2ccc(C(=O)O)cc2)C(=O)N[C@@H](CC2CCNCC2)C(=O)N[C@@H](CC2CCCCC2)C(=O)N[C@H](C(=O)N[C@H](CCC(=O)O)C(N)=O)CSCC(=O)N(C)[C@@H](CCC(=O)O)C(=O)N1C [Peptide 5555_p196] ({CH2CO}-[NMeE][NMeNle][Aib][Ala(indan-2-yl)][Phe(4-F)][X3]YY[Phe(4-COOH)][Ala(piperidin-4-yl)][Cha]C[dE]-NH2; thioether N-12)
- IC50 ([4]; Table 12): 0.8 nM
- Imax: % (at 500 nM) ([4]; Table 12): 101%

SMILES: CCCC[C@H]1C(=O)NC(C)(C)C(=O)N[C@@H](CC2CCCCC2)C(=O)N[C@@H](Cc2ccc(F)cc2)C(=O)N[C@H](CC(=O)O)C(=O)N[C@@H](Cc2ccc(O)cc2)C(=O)N[C@@H](Cc2ccc(O)cc2)C(=O)N[C@@H](CCCNC(N)=O)C(=O)N[C@H](CCCCN)C(=O)N[C@@H](CC2CCCCC2)C(=O)N[C@H](C(=O)N[C@H](CCC(=O)O)C(=O)O)CSCC(=O)N(C)[C@@H](CCC(=O)O)C(=O)N1C [Peptide 5555_p028] ({CH2CO}-[NMeE][NMeNle][Aib][Cha][Phe(4-F)][dD]YY[Cit][dK][Cha]C[dE]-OH; thioether N-12)
- Imax: % (at 500 nM) [1]: 96%
- Imax: % (at 500 nM) [2]: 95%
- Imax: % (at 500 nM) [3]: 93%

SMILES: CCCC[C@@H](C(=O)NC(C)(C)C(=O)N[C@@H](CC1CCCCC1)C(=O)N[C@@H](Cc1ccc(F)cc1)C(=O)N[C@H](CC(=O)O)C(N)=O)N(C)C(=O)[C@H](CCC(=O)O)N(C)C(=O)CSCC[C@H](NC(=O)[C@H](CC1CCCCC1)NC(=O)[C@@H](CCCCN)NC(=O)[C@H](CCCNC(N)=O)NC(=O)[C@H](Cc1ccc(O)cc1)NC(=O)[C@@H](C)Cc1ccc(O)cc1)C(=O)N[C@H](CCC(=O)O)C(=O)N[C@H](CCCCNC(=O)CCCCCCCCCCC(=O)O)C(N)=O [Peptide 5555_p221] (I: X1-Y[Cit][dK][Cha][hCys][dE][dK](C12 diacid)-NH2 / II: [NMeE][NMeNle][Aib][Cha][Phe(4-F)][dD]-NH2; linker I:5-II:N via X2)
- IC50 ([4]; Table 12): 2.6 nM
- Imax: % (at 500 nM) ([4]; Table 12): 97%
